Measurements from patent publication US5391540A, “Substituted pyridine compounds” (Rohm and Haas Company, priority 1993, dated 1995).
Several values for one entry are separate records, joined by “and”; a condition that tells them apart may be missing. Equal values may be shown once.

What was measured:
Assay type in all cases: in vivo
Canada thistle = assay: Pre-emergent herbicidal activity (Table A); details: Cirsium arvense, pre-emergence, Cath, 11.2 kg/ha, 10-14 days, read-out: herbicidal rating (% inhibition)
Outline: (§1)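 Seeds or vegetative propagules were set on topsoil compacted to 0.95 to 1.27 cm below the pan rim, then covered with soil thoroughly mixed with a known amount of test compound in acetone or water carrier. Ratings follow a scale of percent inhibition per species.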

Common Lambsquarters = assay: Pre-emergent herbicidal activity (Table A); details: Chenopodium album, pre-emergence, Colq, 11.2 kg/ha, 10-14 days, read-out: herbicidal rating (% inhibition)
Outline: as §1

Pennsylvania Smartweed = assay: Pre-emergent herbicidal activity (Table A); details: pre-emergence, Pesw, 11.2 kg/ha, 10-14 days, read-out: herbicidal rating (% inhibition)
Outline: as §1

Quackgrass = assay: Pre-emergent herbicidal activity (Table A); details: pre-emergence, Rhqg, 11.2 kg/ha, 10-14 days, read-out: herbicidal rating (% inhibition)
Outline: as §1

Rhizome Johnsongrass = assay: Pre-emergent herbicidal activity (Table A); details: Sorghum halepense, pre-emergence, Rhjg, 11.2 kg/ha, 10-14 days, read-out: herbicidal rating (% inhibition)
Outline: as §1

Colq = assay: plant injury after spraying emerged plants (Table D); parameters: scale not given here
Outline: (§2)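 Greenhouse post-emergence test: plants grown in silt loam (some with fertilizer) to 1–3 true leaf stage (9–14 days), sprayed at 170.3 kPa with emulsifier-containing solution at 1870 L/Ha delivering stated rates. Injury versus unsprayed controls scored after ~10–14 days (usually 11).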

Pesw = assay: as above; parameters: scale not given here
Outline: as §2

Sube = assay: as above; parameters: scale not given here
Outline: as §2

Cocw = assay: as above; parameters: scale not given here
Outline: as §2

Compound | inhibition at 11200 g/ha (Canada thistle) [%] | inhibition at 11200 g/ha (Common Lambsquarters) [%] | inhibition at 11200 g/ha (Pennsylvania Smartweed) [%] | inhibition at 11200 g/ha (Quackgrass) [%] | inhibition at 11200 g/ha (Rhizome Johnsongrass) [%] | plant injury rating, Cocw (Cocw; 0.2803 kg/ha) | plant injury rating, Cocw (Cocw; 5.6050 kg/ha) | plant injury rating, Cocw (Cocw; 1.1210 kg/ha) | also measured
COC(=O)c1c(O)nc(C(F)(F)F)c(C(=O)OC)c1CC(C)C [Compound 1, 3,5-pyridinedicarboxylic acid, 2-hydroxy-4-(2-methylpropyl)-6-(trifluoromethyl)-, dimethyl ester] | 0 to 24 | 0 to 24 | 0 to 24 | 0 to 24 | 0 to 24 | – | – | – | –
COC(=O)c1c(OC)nc(C(F)(F)Cl)c(C(=O)OC)c1CC(C)C [Compound 30, 3,5-pyridinedicarboxylic acid, 2-(chlorodifluoromethyl)-6-methoxy-4-(2-methylpropyl)-, dimethyl ester] | 75 to 100 | 75 to 100 | 75 to 100 | 75 to 100 | 75 to 100 | – | – | – | plant injury rating, Colq (Colq; 0.5605 kg/ha): 0; plant injury rating, Colq (Colq; 1.1210 kg/ha): 0; plant injury rating, Colq (Colq; 2.8025 kg/ha): 1; plant injury rating, Colq (Colq; 5.6050 kg/ha): 1; plant injury rating, Colq (Colq; 8.4075 kg/ha): 1; plant injury rating, Colq (Colq; 11.2100 kg/ha): 2; plant injury rating, Pesw (Pesw; 0.5605 kg/ha): 0; plant injury rating, Pesw (Pesw; 1.1210 kg/ha): 0; plant injury rating, Pesw (Pesw; 2.8025 kg/ha): 1; plant injury rating, Pesw (Pesw; 5.6050 kg/ha): 1; plant injury rating, Pesw (Pesw; 8.4075 kg/ha): 1; plant injury rating, Pesw (Pesw; 11.2100 kg/ha): 1; plant injury rating, Sube (Sube; 0.5605 kg/ha): 0; plant injury rating, Sube (Sube; 1.1210 kg/ha): 1; plant injury rating, Sube (Sube; 2.8025 kg/ha): 1; plant injury rating, Sube (Sube; 5.6050 kg/ha): 1; plant injury rating, Sube (Sube; 8.4075 kg/ha): 1; plant injury rating, Sube (Sube; 11.2100 kg/ha): 1
COC(=O)c1c(OC)nc(C(F)(F)F)c(C2=NCCS2)c1CC(C)C [Compound 50, 3-pyridinecarboxylic acid, 5-(4,5-dihydro-2-thiazolyl)-2-methoxy-4-(2-methylpropyl)-6-(trifluoromethyl)-, methyl ester] | 75 to 100 | 75 to 100 | 75 to 100 | 75 to 100 | 75 to 100 | – | – | – | –
COC(=O)c1c(OC)nc(C(F)(F)F)c(N=CSC)c1CC(C)C [Compound 77, 3-pyridinecarboxylic acid, 2-methoxy-4-(2-methylpropyl)-5-[[(methylthio)methylene]amino]-6-(trifluoromethyl)-, methyl ester] | 75 to 100 | 75 to 100 | 75 to 100 | 75 to 100 | 75 to 100 | – | – | – | plant injury rating, Colq (Colq; 1.1210 kg/ha): 3 and 2; plant injury rating, Colq (Colq; 2.8025 kg/ha): 3 and 2; plant injury rating, Colq (Colq; 5.6050 kg/ha): 2 and 3; plant injury rating, Colq (Colq; 11.2100 kg/ha): 2 and 3; plant injury rating, Pesw (Pesw; 1.1210 kg/ha): 0; plant injury rating, Pesw (Pesw; 2.8025 kg/ha): 0; plant injury rating, Pesw (Pesw; 5.6050 kg/ha): 0; plant injury rating, Pesw (Pesw; 11.2100 kg/ha): 2 and 1; plant injury rating, Sube (Sube; 1.1210 kg/ha): 1; plant injury rating, Sube (Sube; 2.8025 kg/ha): 2; plant injury rating, Sube (Sube; 5.6050 kg/ha): 2 and 1; plant injury rating, Sube (Sube; 11.2100 kg/ha): 2
COC(=O)c1c(OC)nc(C(F)(F)F)c(C(=O)Cl)c1CC1CC1 [Compound 113, 3-pyridinecarboxylic acid, 5-(chlorocarbonyl)-4-(cyclopropylmethyl)-2-methoxy-6-(trifluoromethyl)-, methyl ester] | – | – | – | – | – | 0 | 0 | – | –
COC(=O)c1c(OC)nc(C(F)(F)F)c(C(=O)n2cccn2)c1CC1CC1 [Compound 116, 3-pyridinecarboxylic acid, 4-(cyclopropylmethyl)-2-methoxy-5-(1H-pyrazo1-1-ylcarbonyl)-6-(trifluoromethyl)-, methyl ester] | – | – | – | – | – | 1 | 2 | 2 | plant injury rating, Cocw (Cocw; 0.0701 kg/ha): 0
COC(=O)c1c(OC)nc(C(F)(F)F)c(C(=O)SC)c1C1CCC1 [Compound 137, 3-pyridinecarboxylic acid, 4-cyclobuty1-2-methoxy-5-[(methylthio)carbonyl]-6-(trifluoromethyl)-, methyl ester] | – | – | – | – | – | 2 | 3 | 3 | –
COC(=O)c1c(OC)nc(C(F)(F)F)c(C(=O)n2ccc(F)n2)c1C1CCC1 [Compound 140, 3-pyridinecarboxylic acid, 4-cyclobuty1-5-[(3-fluoro-1H-pyrazo1-1-yl)carbonyl]-2-methoxy-6-(trifluoromethyl)-, methyl ester] | – | – | – | – | – | 2 | 3 | 2 | –
